Where “and” joins values, the source holds several entries; their conditions need not be identical. Equal values may be shown once. Inconclusive results and toxic doses are left out. Rule for the calls: active = survival T/C of 150% or more; inactive = T/C below 125% in these data.
System: P388 leukemia ip, CD2F1 mice, survival T/C
Assay: NCI In Vivo Anticancer Drug Screen. Data for tumor model P388 Leukemia (intraperitoneal) in CD2F1 (CDF1) mice
Conditions: endpoint: median survival time, higher = longer survival
Outline: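 Mice carrying the transplanted tumor received test compound or vehicle. Survival was recorded in each group, and the value is the treated-group measurement divided by that of the vehicle-treated control group.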

[1] = dose: 1.56 mg/kg/injection, schedule: Q01DX009 (ip), vehicle: saline
[2] = dose: 3.12 mg/kg/injection, schedule: Q01DX009 (ip), vehicle: saline
[3] = dose: 25.0 mg/kg/injection, schedule: Q01DX009 (ip), vehicle: saline
[4] = dose: 60.0 mg/kg/injection, schedule: Q01DX005 (ip), vehicle: saline with Tween-80

Measured: T/C

COc1ccc(OC(=O)Nc2ccc(Cl)c(C(F)(F)F)c2)c(Cl)c1
inactive: [1] 100 % of control | [2] 94 % of control | dose: 6.25 mg/kg/injection, schedule: Q01DX009 (ip), vehicle: saline 88 % of control and 95 % of control | dose: 12.5 mg/kg/injection, schedule: Q01DX009 (ip), vehicle: saline 96 % of control | [3] 93 % of control | dose: 100.0 mg/kg/injection, schedule: Q01DX009 (ip), vehicle: saline + alcohol 101 % of control | dose: 200.0 mg/kg/injection, schedule: Q01DX009 (ip), vehicle: saline + alcohol 100 % of control

O=[N+]([O-])c1ccc(CCCl)cc1
inactive: dose: 50.0 mg/kg/injection, schedule: Q01DX009 (ip), vehicle: saline with Tween-80 99 % of control | dose: 100.0 mg/kg/injection, schedule: Q01DX009 (ip), vehicle: saline with Tween-80 88 % of control | dose: 200.0 mg/kg/injection, schedule: Q01DX009 (ip), vehicle: saline with Tween-80 90 % of control

C#Cc1cccc(N=Cc2cc(Br)cc(OC)c2O)c1
inactive: dose: 50.0 mg/kg/injection, schedule: Q01DX005 (ip), vehicle: saline with Tween-80 90 % of control | dose: 100.0 mg/kg/injection, schedule: Q01DX005 (ip), vehicle: saline with Tween-80 92 % of control | dose: 200.0 mg/kg/injection, schedule: Q01DX005 (ip), vehicle: saline with Tween-80 111 % of control

COc1ccc2c(c1)c(CO)c(CO)c[n+]2[O-]
inactive: [4] 100 % of control | dose: 120.0 mg/kg/injection, schedule: Q01DX005 (ip), vehicle: saline with Tween-80 96 % of control | dose: 240.0 mg/kg/injection, schedule: Q01DX005 (ip), vehicle: saline with Tween-80 102 % of control

CC(C)c1ccc(C(CC(=O)C(C)(C)C)C(C(=O)O)c2ccc([N+](=O)[O-])cc2)cc1 (stereo not drawn)
inactive: dose: 50.0 mg/kg/injection, schedule: Q01DX009 (ip), vehicle: Klucel (hydroxypropylcellulose) (HPC) 109 % of control | dose: 100.0 mg/kg/injection, schedule: Q01DX009 (ip), vehicle: Klucel (hydroxypropylcellulose) (HPC) 108 % of control

CCN(CC)CCNc1cc2c(c3c(=O)c4ccccc4sc13)CCCC2
inactive: dose: 7.8 mg/kg/injection, schedule: Q01DX005 (ip), vehicle: other 101 % of control | dose: 15.6 mg/kg/injection, schedule: Q01DX005 (ip), vehicle: other 113 % of control | dose: 31.3 mg/kg/injection, schedule: Q01DX005 (ip), vehicle: other 104 % of control | dose: 62.5 mg/kg/injection, schedule: Q01DX005 (ip), vehicle: other 113 % of control | dose: 125.0 mg/kg/injection, schedule: Q01DX005 (ip), vehicle: other 101 % of control

CCCCCCCCCCCCCCCCCC[N+]1(CC)CCOCC1
inactive: dose: 0.78 mg/kg/injection, schedule: Q01DX009 (ip), vehicle: saline 87 % of control and 90 % of control | [1] 106 % of control and 87 % of control and 88 % of control | [2] 111 % of control and 87 % of control and 88 % of control | [3] 86 % of control | dose: 50.0 mg/kg/injection, schedule: Q01DX009 (ip), vehicle: saline 96 % of control | dose: 100.0 mg/kg/injection, schedule: Q01DX009 (ip), vehicle: saline 88 % of control | dose: 200.0 mg/kg/injection, schedule: Q01DX009 (ip), vehicle: saline 100 % of control

COC(=O)C1C2CC3c4[nH]c5cc(OC)c(Br)cc5c4CCN3CC2CC(OC(=O)c2cc(OC)c(OC)c(OC)c2)C1OC (stereo not drawn)
inactive: dose: 3.75 mg/kg/injection, schedule: Q01DX005 (ip), vehicle: Klucel (hydroxypropylcellulose) (HPC) 104 % of control | dose: 7.5 mg/kg/injection, schedule: Q01DX005 (ip), vehicle: Klucel (hydroxypropylcellulose) (HPC) 94 % of control | dose: 15.0 mg/kg/injection, schedule: Q01DX005 (ip), vehicle: Klucel (hydroxypropylcellulose) (HPC) 104 % of control | dose: 30.0 mg/kg/injection, schedule: Q01DX005 (ip), vehicle: Klucel (hydroxypropylcellulose) (HPC) 108 % of control

COC(=O)C(Br)c1cccc(OC)c1 (stereo not drawn)
inactive: dose: 132.0 mg/kg/injection, schedule: Q04DX003 (ip), vehicle: saline with Tween-80 100 % of control | dose: 178.0 mg/kg/injection, schedule: Q01DX009 (ip), vehicle: saline with Tween-80 100 % of control | dose: 200.0 mg/kg/injection, schedule: Q04DX003 (ip), vehicle: saline with Tween-80 100 % of control | dose: 266.0 mg/kg/injection, schedule: Q01DX009 (ip), vehicle: saline with Tween-80 100 % of control | dose: 300.0 mg/kg/injection, schedule: Q04DX003 (ip), vehicle: saline with Tween-80 100 % of control | dose: 400.0 mg/kg/injection, schedule: Q01DX009 (ip), vehicle: saline with Tween-80 100 % of control

Cc1nc2ccc(N)cc2oc1=O
inactive: dose: 15.0 mg/kg/injection, schedule: Q01DX005 (ip), vehicle: saline with Tween-80 100 % of control | dose: 30.0 mg/kg/injection, schedule: Q01DX005 (ip), vehicle: saline with Tween-80 101 % of control | [4] 105 % of control and 98 % of control

From PubChem BioAssay AID330 (DTP/NCI, 2004)
